Legend:
[1] = molecular target: Ustilago maydis acetyl CoA carboxylase (ACCase) (Ustilago maydis, UniProt A0A0D1DYD5); experiment: ACCase enzymatic assay (coupled PK/LDH, NADH OD340); assay type: biochemical; conditions: read-out: ACCase Inhibitory Activity IC50
Method: Ustilago maydis acetyl CoA carboxylase (ACCase) was cloned, expressed, and purified as described (Weatherly et al, Biochem. J., 2004) and the test compounds were tested in a 96-well plate format. Primary in vitro screening consisted of obtaining dose response data at 100, 33, 10, and 1 μM inhibitor. Actives in the primary screen were re-tested to establish IC50 values.
Direct detection of the conversion of acetyl CoA to malonyl CoA by ACCase was not feasible, but during this process ATP is converted to ADP which allowed for detection through a standard reaction coupling with ADP recycling to the oxidation of NADH. Thus, ACCase activity was measured via kinetic OD340 measurements of the conversion of NADH to NAD in a coupled reaction involving the conversion of phosphoenolpyruvate (PEP) to lactate.
The complete 200 ul reaction mixture contained 52.5 mM HEPES (pH8), 2.625 mM MgCl2, 1 mM ATP, 0.525 mM DTT, 11 mM NaHCO3, 1% DMSO with or without inhibitor, 1× pyruvate kinase/lactate dehydrogenase (PK/LDH), 0.3 mM NADH, 0.5 mM PEP, and 5 μg ACCase. The reactions were incubated at 30° C. for 10 minutes and then initiated by the addition of 0.33 mM acetyl CoA. The initiated reactions were read immediately via plate reader at OD340 and kinetic readings were acquired every 20 s for 15 minutes while keeping the temperature at 30° C.
A slope of the kinetic curve was determined by using the 2 to 7 minute data which was then calculated as percent inhibition relative to the no inhibitor control.
The primary screens were conducted in duplicate and the IC50's conducted in triplicate. Averages were reported along with standard deviation calculation to generate error bars.
Each plate contained its own controls and consisted of a DMSO only control, 5-fold titration series of soraphen from 2 μM to 3.2 nM, and an ADP coupled reaction control. […]
A slope of the kinetic curve was determined by using the 2 to 7 minute data which was then calculated as percent inhibition relative to the no inhibitor control. Those compounds which had no significant PK/LDH inhibition at or above the IC50 in the ACCase assay, were considered to be valid modulators of only ACCase.

Diplodia maydis = experiment: Fungal growth inhibition assay, D. maydis; assay type: cell-based; conditions: 48 h
Method: (§1) Spores were isolated from previously sub-cultured plates of Botrytis cinerea, Phytophthora capsici, Fusarium moniliforme, Fusarium viguliforme, Collectotrichum graminicola, and Diplodia maydis. All spores were filtered and collected in a sterile glass bowl to isolate the spores from the mycelia. The isolation and sub-culture plate condition for each pathogen is described below.
Spore isolation for D. maydis: A 3-4 week old PDA (pre-mix) plate was removed from 26° C. incubator with a light/dark 12 hour cycle and the mycelia were treated with 6-7 ml of sterile distilled water, scraped into a sterile petri dish, and smashed to open the pycnidia. The spores were then collected in a sterile filter bowl containing a fluted piece of filter paper and poured into a conical tube.
(§2) After spore isolation, pathogen spores were counted on a hemocytometer to calculate the spores/ml. In 17% V8 liquid media containing 3 g/L CaCO3, isolated spores were diluted to individual concentrations based on the growth curves at 48 hours of each pathogen. The spore concentrations for each pathogen were as follows: B. cinerea—10,000 sp/ml; P. capsici—300 sp/ml; F. monliforme—500 sp/ml; F. virguliforme—500 sp/ml; C. graminicola—3,000 sp/ml; and D. maydis—3,000 sp/ml.
(§3) Chemistry stocks were dissolved in DMSO at 2.5 mg/ml. Chemistry was diluted in a 96-well stock plate in five-fold dilutions to obtain a final concentration of 50, 10, and 2 ppm in vitro. The final concentration of the positive control after the five-fold dilutions was as follows: soraphen—0.5, 0.1, and 0.02 ppm. Negative controls on each plate included 2% DMSO, water containing spores and media, and a blank for background subtraction.
(§4) In a 96-well plate the spore solution, chemistries, and controls were combined to make the final solution concentrations mentioned above. Upon addition of the chemistry, an OD600 reading was done to assess chemical precipitation. The 96-well plates were incubated in plastic tubs containing wet paper towels under the following conditions, 25° C. in the dark for P. capsici and B. cinerea or 26° C. with light/dark cycle for C. graminicola, D. maydis, F. virguliforme, F. monliforme. Plate readings were repeated at 24 and 48 hrs. Visual ratings were performed at 24 and 48 hrs to check for precipitation and confirm efficacy. Visual and OD600 ratings of the chemistry at 48 hours were compared to the 2% DMSO control to determine the percent of pathogen growth inhibition.

Fusarium moniloforme = experiment: Fungal growth inhibition assay, F. moniliforme; assay type: cell-based; conditions: 48 h
Method: as §1
Spore isolation for F. moniliforme: A 1 week old PDA (potato dextrose agar, pre-mix) plate was removed from 26° C. incubator with a light/dark 12 hour cycle and the mycelia were treated with 5-10 ml of filter sterilized Triton X 100 (0.05%). The mycelia were scraped to re-suspend the spores. The spores were then collected in a sterile filter bowl containing a fluted piece of filter paper.
as §2, §3, §4

Saccharomyces cerevisiae = experiment: Yeast growth inhibition assay; assay type: cell-based; conditions: read-out: S. cerevisiae % growth inhibition
Method: Yeast cells (Ade2 strain) were grown in liquid YPD (1% yeast extract, 2% peptone, 2% dextrose) for 16 hours at 30° C. from previously sub-cultured plates of Saccharomyces cerevisiae. The OD600 of the overnight culture was checked via spectrophotometer and diluted to a concentration of 2×10^4 cells/ml.
Chemistry stocks were dissolved in DMSO to a concentration of 10 mM. Chemistry stocks were further diluted in a 96-well stock plate to obtain final concentrations of […] in 1% DMSO. The final concentrations of the soraphen positive control were 400, 40, and 3.2 nM. The negative controls on each plate included a background subtraction control containing yeast and 1% DMSO (without chemistry) and a second contamination control containing YPD (with no yeast) and 1% DMSO (without chemistry).
98 μl liquid YPD was added to 2 μl diluted stock of DMSO per well and mixed thoroughly. After mixing, 100 μl of the diluted yeast solution was added to bring the final yeast concentration to 1×10^4 cells/ml or 2000 cells per well. An initial spectrophotometric reading at OD600 was conducted on the entire plate and served as the 0 hours time point used to subtract any background. […] […] […] All experiments were conducted in triplicate. Averages were reported along with standard deviation calculation to generate error bars. Each plate contained its own controls and consisted of inoculated+DMSO, non-inoculated+DMSO, and a titration series of soraphen at 400, 40, and 3.2 nM.

Ustilago maydis acetyl CoA carboxylase (ACCase), sequence (A0A0D1DYD5 1-2185): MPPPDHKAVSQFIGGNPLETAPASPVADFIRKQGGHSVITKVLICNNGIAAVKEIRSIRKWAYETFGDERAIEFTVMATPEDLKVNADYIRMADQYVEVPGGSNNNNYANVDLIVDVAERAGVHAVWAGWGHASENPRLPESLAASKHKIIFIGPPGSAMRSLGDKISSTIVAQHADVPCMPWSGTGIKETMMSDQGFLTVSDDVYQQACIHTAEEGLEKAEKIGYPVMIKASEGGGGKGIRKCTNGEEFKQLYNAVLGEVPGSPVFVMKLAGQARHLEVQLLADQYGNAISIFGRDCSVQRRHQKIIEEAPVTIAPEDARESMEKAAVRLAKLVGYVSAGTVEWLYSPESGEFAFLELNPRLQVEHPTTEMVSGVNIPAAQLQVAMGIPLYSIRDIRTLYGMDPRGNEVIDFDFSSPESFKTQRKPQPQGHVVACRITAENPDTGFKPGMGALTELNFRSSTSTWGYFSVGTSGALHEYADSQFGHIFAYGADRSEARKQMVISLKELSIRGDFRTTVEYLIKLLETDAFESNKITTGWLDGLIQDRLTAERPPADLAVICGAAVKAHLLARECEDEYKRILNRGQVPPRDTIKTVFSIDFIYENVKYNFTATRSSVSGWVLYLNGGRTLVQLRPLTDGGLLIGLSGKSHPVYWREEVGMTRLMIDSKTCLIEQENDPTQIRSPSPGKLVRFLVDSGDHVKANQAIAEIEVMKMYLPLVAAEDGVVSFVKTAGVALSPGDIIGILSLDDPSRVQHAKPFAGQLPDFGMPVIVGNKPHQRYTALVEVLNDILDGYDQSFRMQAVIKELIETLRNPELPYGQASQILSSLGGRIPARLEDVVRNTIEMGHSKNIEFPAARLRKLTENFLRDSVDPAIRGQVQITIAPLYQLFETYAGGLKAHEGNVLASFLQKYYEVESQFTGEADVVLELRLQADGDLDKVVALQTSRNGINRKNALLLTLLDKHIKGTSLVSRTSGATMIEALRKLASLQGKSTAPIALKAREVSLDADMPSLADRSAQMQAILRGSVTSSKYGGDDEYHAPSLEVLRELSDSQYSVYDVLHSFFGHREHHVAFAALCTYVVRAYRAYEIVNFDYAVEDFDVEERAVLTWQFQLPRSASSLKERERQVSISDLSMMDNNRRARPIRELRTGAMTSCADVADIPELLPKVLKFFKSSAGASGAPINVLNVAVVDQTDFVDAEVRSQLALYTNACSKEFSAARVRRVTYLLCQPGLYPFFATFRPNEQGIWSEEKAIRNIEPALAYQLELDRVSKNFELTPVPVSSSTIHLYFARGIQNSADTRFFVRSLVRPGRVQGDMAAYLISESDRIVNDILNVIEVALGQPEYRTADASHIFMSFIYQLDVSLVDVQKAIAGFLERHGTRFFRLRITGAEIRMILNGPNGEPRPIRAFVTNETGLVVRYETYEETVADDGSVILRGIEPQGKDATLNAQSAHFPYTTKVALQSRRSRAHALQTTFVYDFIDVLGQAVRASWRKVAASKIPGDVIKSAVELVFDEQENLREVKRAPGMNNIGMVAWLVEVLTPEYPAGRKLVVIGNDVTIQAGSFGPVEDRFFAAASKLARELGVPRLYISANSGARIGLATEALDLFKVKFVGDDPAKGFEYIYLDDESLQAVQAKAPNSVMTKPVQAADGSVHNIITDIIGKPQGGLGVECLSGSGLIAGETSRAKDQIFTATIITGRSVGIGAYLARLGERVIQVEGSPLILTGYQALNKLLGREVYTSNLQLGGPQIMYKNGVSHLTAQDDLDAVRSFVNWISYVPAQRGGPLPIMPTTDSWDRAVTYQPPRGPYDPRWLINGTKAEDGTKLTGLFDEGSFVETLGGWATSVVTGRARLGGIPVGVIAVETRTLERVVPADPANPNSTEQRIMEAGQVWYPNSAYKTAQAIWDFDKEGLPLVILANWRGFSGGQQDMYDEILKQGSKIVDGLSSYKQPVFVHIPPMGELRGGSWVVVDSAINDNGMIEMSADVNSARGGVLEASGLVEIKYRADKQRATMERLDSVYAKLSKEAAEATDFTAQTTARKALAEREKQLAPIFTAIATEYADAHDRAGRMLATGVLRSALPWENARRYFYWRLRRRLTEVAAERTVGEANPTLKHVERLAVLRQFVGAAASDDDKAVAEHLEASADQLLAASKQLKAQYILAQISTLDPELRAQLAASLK

| Structure (SMILES) | IC50 [1] [nM] | inhibition at 2 ppm (Diplodia maydis) [%] | inhibition at 10 ppm (Diplodia maydis) [%] | inhibition at 50 ppm (Diplodia maydis; 50 ppm) [%] | inhibition at 2 ppm (Fusarium moniloforme) [%] | inhibition at 10 ppm (Fusarium moniloforme) [%] | inhibition at 50 ppm (Fusarium moniloforme; 50 ppm) [%] | inhibition at 3.7 µM (Saccharomyces cerevisiae) [%] | inhibition at 11.1 µM (Saccharomyces cerevisiae) [%] | inhibition at 33.3 µM (Saccharomyces cerevisiae) [%] | inhibition at 100 µM (Saccharomyces cerevisiae) [%] |
| --- | --- | --- | --- | --- | --- | --- | --- | --- | --- | --- | --- |
| O=C(O)Cc1ccc(-c2cc(-c3ccccc3)c3ccccc3n2)s1 [Formula Ib-iv, 2-(5-(4-phenylquinolin-2-yl)thiophen-2-yl)acetic acid] | 145 | 8 | 45 | 89 | 17 | 31 | 36 | 0 | 0 | 15 | 99 |
| O=C(O)Cc1ccc(-c2nc3ccccc3c(-c3ccccc3)c2Cl)s1 [Formula Ib-ii, 2-(5-(3-chloro-4-phenylquinolin-2-yl)thiophen-2-yl)acetic acid] | 110 | 55 | 70 | – | 39 | 45 | – | 0 | 0 | 55 | 79 |

From patent US10995070B2, “Acetyl-CoA carboxylase modulators” (Monsanto Technology LLC, priority 2013, dated 2021)
